Source: patent EP1561465A2, “Methods of use of fluoroquinolone compounds against bacteria” (LG Life Sciences, Ltd., priority 1999, dated 2001)
Converted amounts (≈) assume the structure as drawn. Where two headings read alike, the source gives them in different places.

Key:
Enterobacter spp. = test: MIC by agar dilution (NCCLS), 322 nosocomial Gram negative isolates, Athens 1998; type: cell-based; conditions: Enterobacter, n = 57 isolates
Klebsiella pneumoniae = test: as above; type: cell-based; conditions: Klebsiella pneumoniae; n = 56 isolates
Acinetobacter spp. = test: as above; type: cell-based; conditions: Acinetobacter; n = 38 strains
Escherichia coli = test: as above; type: cell-based; conditions: n = 57 isolates
Proteus mirabilis = test: as above; type: cell-based; conditions: Proteus mirabilis; n = 57 isolates
Aeromonas spp. [1] = test: MIC by agar dilution (NCCLS M7-A4), 288 enteropathogenic isolates, gemifloxacin and 15 other antimicrobials; type: cell-based; conditions: Aeromonas spp. N= 16
Hafnia alvei [2] = test: as above; type: cell-based; conditions: Hafnia alvei N= 32
Shigella spp. [3] = test: as above; type: cell-based; conditions: Shigella spp. N= 21
Description: [A. hydrophila (12), and A. sobria (4)], and 91 Campylobacter jejuni. […] The strains were stored in skimmed-milk at -80 °C until studied.
The plates were incubated aerobically at 35 °C for 24 h, except for Campylobacter jejuni, where a microaerophilic atmosphere was obtained by using Campy Pack (Becton Dickinson, Cockeysville, MD, USA), and incubation was for 48 h. All organisms were tested with an inoculum of ≅ 10^4 cfu/spot. MICs were defined as the lower antibiotic concentration with no visible growth.

Campylobacter jejuni [4] = test: MIC by agar dilution (NCCLS M7-A4), 5% sheep blood, microaerophilic 48 h; type: cell-based; conditions: Campylobacter jejuni (n=91)
Campylobacter jejuni [5] = test: MIC by agar dilution (NCCLS M7-A4), 288 enteropathogenic isolates, gemifloxacin and 15 other antimicrobials; conditions: Campylobacter jejuni
Yersinia enterocolitica [6] = test: MIC by agar dilution (NCCLS M7-A4), 288 enteropathogenic isolates, eight quinolones; type: cell-based; conditions: Yersinia enterocolitica (n = 22)
Yersinia enterocolitica [7] = test: MIC by agar dilution (NCCLS M7-A4), 288 enteropathogenic isolates, gemifloxacin and 15 other antimicrobials; type: cell-based; conditions: Yersinia enterocolitica N= 22
Salmonella spp. [8] = test: MIC by agar dilution (NCCLS M7-A4), 288 enteropathogenic isolates, eight quinolones; type: cell-based; conditions: for MIC: ciprofloxacin MIC ≥[…], read-out: MIC
Salmonella spp. [9] = test: MIC by agar dilution (NCCLS M7-A4), 288 enteropathogenic isolates, gemifloxacin and 15 other antimicrobials; type: cell-based
Shigella spp. [10] = test: MIC by agar dilution (NCCLS M7-A4), 288 enteropathogenic isolates, eight quinolones; type: cell-based; conditions: Shigella spp. (n = 21)
Hafnia alvei [11] = test: as above; type: cell-based; conditions: Hafnia alvei (n = 32)
Aeromonas spp. [12] = test: as above; type: cell-based; conditions: Aeromonas spp. (n = 16)
[13] = 24 h, read-out: MIC (mg/L) Range

CO[C@@]1(NC(=O)Cc2cccs2)C(=O)N2C(C(=O)O)=C(COC(N)=O)CS[C@@H]21 [Cefoxitin]
MIC50 (Enterobacter spp.; read-out: MIC50): > 64 µg/mL | MIC90 (Enterobacter spp.; read-out: MIC90): > 64 µg/mL | MIC50 (Klebsiella pneumoniae): 4 µg/mL (≈ 9.36 µM) | MIC90 (Klebsiella pneumoniae): 16 µg/mL (≈ 37.4 µM) | MIC50 (Acinetobacter spp.): > 64 µg/mL | MIC90 (Acinetobacter spp.): > 64 µg/mL | MIC50 (Escherichia coli; Escherichia coli): 4 µg/mL (≈ 9.36 µM) | MIC90 (Escherichia coli; Escherichia coli): 16 µg/mL (≈ 37.4 µM) | MIC Range (Escherichia coli): 2 to 32 µg/mL | MIC50 (Proteus mirabilis): 4 µg/mL (≈ 9.36 µM) | MIC90 (Proteus mirabilis): 16 µg/mL (≈ 37.4 µM)

CCn1cc(C(=O)O)c(=O)c2cc(F)c(N3CCNCC3)cc21 [Norfloxacin, norfloxacin]
MIC (mg/L) Range (Aeromonas spp. [1]): ≤0.015 to 0.12 mg/L | MIC (Aeromonas spp. [1]; read-out: MIC (mg/L) 50%): ≤ 0.015 mg/L | MIC (Aeromonas spp. [1]; read-out: MIC (mg/L) 90%): 0.03 mg/L (≈ 0.0939 µM) | MIC (Hafnia alvei [2]; [13]): 0.015 to 0.03 mg/L (≈ 0.047 to 0.0939 µM) | MIC (Hafnia alvei [2]; read-out: MIC (mg/L) 50%): 0.03 mg/L (≈ 0.0939 µM) | MIC (Hafnia alvei [2]; read-out: MIC (mg/L) 90%): 0.03 mg/L (≈ 0.0939 µM) | MIC (Shigella spp. [3]; [13]): 0.03 to 0.06 mg/L (≈ 0.0939 to 0.188 µM) | MIC (Shigella spp. [3]; read-out: MIC (mg/L) 50%): 0.06 mg/L (≈ 0.188 µM) | MIC (Shigella spp. [3]; read-out: MIC (mg/L) 90%): 0.06 mg/L (≈ 0.188 µM) | % Susceptible (Campylobacter jejuni [4]): 31.86% | MIC50 (Campylobacter jejuni [4]): 128 µg/mL (≈ 401 µM) | MIC90 (Campylobacter jejuni [4]): > 128 µg/mL | MIC (Campylobacter jejuni [5]; read-out: MIC (mg/L) 50%): 128 mg/L (≈ 401 µM) | MIC (Campylobacter jejuni [5]; read-out: MIC (mg/L) 90%): > 128 mg/L | % Susceptible (Yersinia enterocolitica [6]): 100% | MIC50 (Yersinia enterocolitica [6]): 0.06 µg/mL (≈ 0.188 µM) | MIC90 (Yersinia enterocolitica [6]): 0.06 µg/mL (≈ 0.188 µM) | MIC Range (Yersinia enterocolitica [6]): 0.06 to 0.5 µg/mL | MIC (Yersinia enterocolitica [7]; [13]): 0.06 to 0.5 mg/L (≈ 0.188 to 1.57 µM) | MIC (Yersinia enterocolitica [7]; read-out: MIC (mg/L) 50%): 0.06 mg/L (≈ 0.188 µM) | MIC (Yersinia enterocolitica [7]; read-out: MIC (mg/L) 90%): 0.06 mg/L (≈ 0.188 µM) | MIC (Salmonella spp. [8]; S. hadar (n = 2)): 4 µg/mL (≈ 12.5 µM) | MIC (Salmonella spp. [8]; S. newport (n = 1)): 2 µg/mL (≈ 6.26 µM) | MIC (Salmonella spp. [8]; S. virchow (n = 2)): 0.5 µg/mL (≈ 1.57 µM) | % Susceptible (Salmonella spp. [8]; Salmonella spp. (n = 106)): 100% | MIC50 (Salmonella spp. [8]; Salmonella spp. (n = 106)): 0.06 µg/mL (≈ 0.188 µM) | MIC90 (Salmonella spp. [8]; Salmonella spp. (n = 106)): 0.5 µg/mL (≈ 1.57 µM) | MIC Range (Salmonella spp. [8]; Salmonella spp. (n = 106)): 0.06 to 4 µg/mL | MIC (Salmonella spp. [8]; Salmonella, S. tshiongwe (n = 1)): 4 µg/mL (≈ 12.5 µM) | MIC (Salmonella spp. [9]; S. hadar(2), isolates with MICs for ciprofloxacin ≥[…], read-out: MIC): 4 mg/L (≈ 12.5 µM) | MIC (Salmonella spp. [9]; S. newport(1), isolate with MIC for ciprofloxacin ≥[…], read-out: MIC): 2 mg/L (≈ 6.26 µM) | MIC (Salmonella spp. [9]; S. virchow(2), isolates with MICs for ciprofloxacin ≥[…], read-out: MIC): 0.5 mg/L (≈ 1.57 µM) | MIC (mg/L) Range (Salmonella spp. [9]; Salmonella spp. N= 106): 0.06 to 4 mg/L | MIC (Salmonella spp. [9]; Salmonella, S. tshiongwe(1), isolate with MIC for ciprofloxacin ≥[…], read-out: MIC): 4 mg/L (≈ 12.5 µM) | MIC (Salmonella spp. [9]; Salmonella, read-out: MIC (mg/L) 50%, Salmonella spp. N= 106): 0.06 mg/L (≈ 0.188 µM) | MIC (Salmonella spp. [9]; Salmonella, read-out: MIC (mg/L) 90%, Salmonella spp. N= 106): 0.5 mg/L (≈ 1.57 µM) | % Susceptible (Shigella spp. [10]): 100% | MIC50 (Shigella spp. [10]): 0.06 µg/mL (≈ 0.188 µM) | MIC90 (Shigella spp. [10]): 0.06 µg/mL (≈ 0.188 µM) | MIC Range (Shigella spp. [10]): 0.03 to 0.06 µg/mL | % Susceptible (Hafnia alvei [11]): 100% | MIC50 (Hafnia alvei [11]): 0.03 µg/mL (≈ 0.0939 µM) | MIC90 (Hafnia alvei [11]): 0.03 µg/mL (≈ 0.0939 µM) | MIC Range (Hafnia alvei [11]): ≤0.015 to 0.03 µg/mL | % Susceptible (Aeromonas spp. [12]): 100% | MIC50 (Aeromonas spp. [12]): ≤ 0.015 µg/mL | MIC90 (Aeromonas spp. [12]): 0.03 µg/mL (≈ 0.0939 µM) | MIC Range (Aeromonas spp. [12]): ≤0.015 to 0.12 µg/mL
